The values that follow come from US12678443B2, “Medicament for preventing and/or treating dry eye” (Santen Pharmaceutical Co., Ltd., priority 2021, dated 2026).

Data set [1] relates to dry-eye model SD (Sprague-Dawley) rat. Nature of the data set: Quantity of tears by Schirmer strip in the exorbital-lacrimal-gland-removed dry-eye model (Tests 3 and 4). It counts as in vivo. The settings on record: for Incremental difference in Schirmer's test at 0.5 hours after ocular instillation / Incremental difference in Schirmer's test at 8 hours after ocular instillation: difference from vehicle-instilled group, rat dry-eye model. On the procedure: A somnopentyl injection five-fold diluted with physiological saline was intraperitoneally administered to a normal male SD (Sprague-Dawley) rat by 2.5 mL/kg, and the rat was given general anesthesia, followed by keeping the anesthetized state by inhalation of about 1 to 3% isoflurane. Then, the skin on each cheek was incised to remove the exorbital lacrimal gland, followed by suturation with a Michel suture clamp. In this test, an individual wherein reduction of tears was confirmed after 13 weeks from the removal of exorbital lacrimal gland was included as the experimental animal.
Half an hour after treatment of general anesthesia, Schirmer strip (1 mm×17 mm) was inserted to conjunctival sac of the lower eyelid of a rat, and then after 1 minute of the insertion, the wet part of the Schirmer strip was measured in increments of 0.5 mm. (N=14 or 16 eyes)
The quantity of tears was measured in a similar manner to Test 3. (N=10 eyes)

For data set [2], the system named is normal male cynomolgus monkeys. Nature of the data set: Tear film break-up time (TBUT) after single ocular instillation (Tests 1 and 2). It counts as in vivo, cynomolgus monkey. Particulars: for extension of TBUT: single ocular instillation 1% (w/v) ophthalmic solution, FIG. 2.
For data set [3], the target named is β1 adrenergic receptors (Homo sapiens, UniProt P08588). Particulars: cited from earlier work.
The test system of data set [4] is normal male cynomolgus monkeys. Nature of the data set: Intraocular pressure test, twice daily repeated instillation (Test 5). It is filed as in vivo, cynomolgus monkey. The settings on record: 0.01% and 0.1% ophthalmic solutions, twice daily repeatedly, Day 1, 7, 14; FIG. 4. On the procedure: Specifically, one drop of 0.4% oxybuprocaine hydrochloride ophthalmic solution (trade name: Benoxil (registered trademark) ophthalmic solution 0.4%) was instilled to the right eye so as to provide surface anesthesia, and then the intraocular pressure was measured three times with Mentor tonometer (applanation), followed by calculation of the average. (N=6 eyes)

The conditions of data set [5]: cited from earlier work; for secretion of tears and tear proteins: Patent Literature 1.
Setting [6] is: 0.001% ophthalmic solution, 8 hours.
Setting [7] is: 0.01% ophthalmic solution, 8 hours.
The mark [8] stands for this setting: 0.1% ophthalmic solution, 8 hours.
[9] abbreviates: 1% ophthalmic solution, 8 hours.

The structures appear in SMILES notation.

Sequence of β1 adrenergic receptors (P08588 whole entry): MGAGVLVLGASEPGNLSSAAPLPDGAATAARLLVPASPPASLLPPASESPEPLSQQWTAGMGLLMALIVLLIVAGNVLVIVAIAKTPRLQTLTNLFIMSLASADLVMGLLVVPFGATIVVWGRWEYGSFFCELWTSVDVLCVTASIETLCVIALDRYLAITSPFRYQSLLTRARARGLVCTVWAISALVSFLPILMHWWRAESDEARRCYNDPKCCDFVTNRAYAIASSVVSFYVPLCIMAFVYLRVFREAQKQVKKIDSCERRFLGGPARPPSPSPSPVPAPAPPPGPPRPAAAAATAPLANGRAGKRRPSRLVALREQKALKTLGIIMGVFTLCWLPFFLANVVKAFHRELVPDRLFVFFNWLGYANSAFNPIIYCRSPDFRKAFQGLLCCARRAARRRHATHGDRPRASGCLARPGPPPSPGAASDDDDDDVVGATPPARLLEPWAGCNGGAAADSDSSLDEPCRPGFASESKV

With `COc1ccc(CC(C)(C)NC[C@H](O)c2cc(O)cc3c2OCC(=O)N3)cc1` [olodaterol, 6-hydroxy-8-((1R)-1-hydroxy-2-{[2-(4-methoxyphenyl)-1,1-dimethylethyl]amino}-ethyl)-2H-1,4-benzoxazin-3-(4H)-one], the “Incremental difference in Schirmer's test at 0.5 hours after ocular instillation” value in data set [1] (0.00001% ophthalmic solution) is listed as 2.8 mm/min; in data set [1] (0.0001% ophthalmic solution) it was 6.0 mm/min; in data set [1] (0.001% ophthalmic solution), 7.2 mm/min; in data set [1] (0.01% ophthalmic solution), 6.9 mm/min. The “Incremental difference in Schirmer's test at 8 hours after ocular instillation” value in data set [1] (0.00001% ophthalmic solution, 8 hours) came out at 0.4 mm/min; in data set [1] (0.0001% ophthalmic solution, 8 hours), 1.7 mm/min; in data set [1] (setting [6]), 2.1 mm/min; in data set [1] (setting [7]) it was 2.8 mm/min. The “lacrimal secretion at 8 hours after ocular instillation” value in data set [1] (0.0001 to 0.01% instilled groups, 8 hours, FIG. 3) is “highly enhanced”. The “increase of tear volumes at 16 hours after ocular instillation” value in data set [1] (0.001 and 0.01% instilled groups, 16 hours, FIG. 3) is on record as “increase of tear volumes was observed”. The lacrimal secretion result in data set [1] (olodaterol-instilled groups 0.00001 to 0.01%, FIG. 3) is listed as “enhanced”. In addition, in data set [2] (low concentration of 0.0001%, FIG. 1), the “effect of stabilizing tear film” value is on record as “confirmed to show the effect of stabilizing tear film”. For the same compound, the TBUT-extending effect result in data set [2] (single ocular instillation 0.0001, 0.001, 0.01% (w/v), 20 μL/eye, 15, 30, 60 minutes, FIG. 1) is reported as “confirmed in a concentration-dependent manner”. Moreover, the “intrinsic activity against β1 adrenergic receptors” value in data set [3] is reported as “weak intrinsic activity”. In addition, in data set [4], the intraocular pressure result was “did not show increase and/or decrease”.

In the case of `CC(C)(C)NCC(O)c1ccc(O)c(CO)c1` (stereo not shown) [salbutamol], the lacrimal secretion result in data set [5] (Patent Literature 2) is “confirmed to enhance lacrimal secretion”. Besides, in data set [5] (Patent Literature 3), the “effects on the treatment of dry eye” value is “did not have sufficient effects”.

Consider `CC(C)(C)NCC(O)c1cc(Cl)c(N)c(Cl)c1` (stereo not shown) [clenbuterol], for which the “Incremental difference in Schirmer's test at 0.5 hours after ocular instillation” value is 2.0 mm/min in data set [1] (0.001% ophthalmic solution), 2.7 mm/min in data set [1] (0.01% ophthalmic solution), 3.6 mm/min in data set [1] (0.1% ophthalmic solution) and 3.0 mm/min in data set [1] (1% ophthalmic solution). For the same compound, the “Incremental difference in Schirmer's test at 8 hours after ocular instillation” value in data set [1] (setting [6]) was found to be 0.3 mm/min; in data set [1] (setting [7]), 1.1 mm/min; in data set [1] (setting [8]) it was 2.4 mm/min; in data set [1] (setting [9]), 3.9 mm/min. The “extension of TBUT” value in data set [2] was “not confirmed”. Also, the “secretion of tears and tear proteins” value in data set [5] is given as “confirmed to enhance”.

With `CC(Cc1ccc(O)cc1)NCC(O)c1cc(O)cc(O)c1` (stereo not shown) [fenoterol], the “Incremental difference in Schirmer's test at 0.5 hours after ocular instillation” value in data set [1] (0.001% ophthalmic solution) was found to be 1.8 mm/min; in data set [1] (0.01% ophthalmic solution) it was 4.8 mm/min; in data set [1] (0.1% ophthalmic solution), 6.1 mm/min; in data set [1] (1% ophthalmic solution), 3.6 mm/min. Further, the “Incremental difference in Schirmer's test at 8 hours after ocular instillation” value in data set [1] (setting [6]) turned out to be 0.0 mm/min; in data set [1] (setting [7]), 0.2 mm/min; in data set [1] (setting [8]) it was 0.9 mm/min; in data set [1] (setting [9]), 1.1 mm/min. In addition, in data set [2], the “extension of TBUT” value is reported as “not confirmed”. In addition, the “secretion of tears and tear proteins” value in data set [5] is “confirmed to enhance”.
